Assay [1] addresses T1, Kv1.3/1.1 S5-S6 chimeric channel (Homo sapiens, UniProt P22001, D422E/D423E/G427H/H451Y/P424A/T425E/T441S).
T1 construct: expressed in transfected cells; host or cells: CHO-K1
The assay is described as follows: Whole-cell patch clamp, chimeric channel. The format is cell-based. As to conditions: +30 mV, 500 ms, holding −80 mV, mean ± SD, n = 4-5, read-out: IC50, Kv1.3/1.1 S5-S6 current. An excerpt: To investigate the structural determinants underlying the differential regulatory effects of MrVIII on Kv1 channels, we employed a chimeric channel strategy. Using Kv1.3 as the template, the S1-S2, S3-S4, and S5-S6 transmembrane helices and their respective linkers from Kv1.1 were inserted to generate chimeras, generating the Kv1.3/1.1 S1-S2, Kv1.3/1.1 S3-S4, and Kv1.3/1.1 S5-S6 chimeric channels. […] These findings indicate that the S3-S4 is the key determinant for the differential inhibition of Kv1.1 and Kv1.3 by MrVIII. To further validate this conclusion, we constructed a reverse chimeric channel using Kv1.1 as the template, inserting the corresponding regions from Kv1.3 into Kv1.1. […] This finding more directly illustrates the exchange of the channel's voltage-dependence phenotype in toxin inhibition by swapping this S3-S4 between Kv1.1 and Kv1.3. […] In addition to confirming the differential role of S3-S4 between Kv1.1 and Kv1.3, we also substituted the S3-S4 of Kv1.4 and Kv1.7 into Kv1.3 to analyze MrVIII's inhibition profile. […] The IC50 for Kv1.3/1.7 S3-S4 could not be fitted, and inhi%(495 ms) was only 23.1 ± 10.0% (Fig. S2, E and F). […]
(§1) CHO-K1 cells were selected for expressing Kv channels due to their lack of endogenous Kv channels, while HEK293 or ND7/23 cells were used for Nav and Cav channel expression. […] After 4 to 6 h transfection, cells were seeded onto poly-lysine–coated coverslips, and 24 to 36 h later, transfected cells were ready for patch-clamp analysis. […]
For Kv current recordings, the bath solution contained (in mM) the following: 140 NaCl, 5 KCl, 1 MgCl2, 2 CaCl2, 10 glucose, and 10 Hepes (pH 7.3, adjusted with NaOH), and the pipette solution contained (in mM) the following: 140 KCl, 2.5 MgCl2, 11 EGTA, and 10 Hepes (pH 7.3, adjusted with KOH). […] Whole cell conductance (G) at each depolarizing voltage (V) was determined using the equation: G = I/(V−Vrev), where I is the current amplitude, and Vrev is the reversal potential. […]

Assay [2] has as its system Kv1.3/Kv1.4 S3-S4 chimeric channel. The assay is described as follows: Whole-cell patch clamp, chimeric channel. As to conditions: +30 mV, mean ± SD, n = 5-6. It is filed as cell-based, human/rat.
Text: To investigate the structural determinants underlying the differential regulatory effects of MrVIII on Kv1 channels, we employed a chimeric channel strategy. Using Kv1.3 as the template, the S1-S2, S3-S4, and S5-S6 transmembrane helices and their respective linkers from Kv1.1 were inserted to generate chimeras, generating the Kv1.3/1.1 S1-S2, Kv1.3/1.1 S3-S4, and Kv1.3/1.1 S5-S6 chimeric channels. […] These findings indicate that the S3-S4 is the key determinant for the differential inhibition of Kv1.1 and Kv1.3 by MrVIII. To further validate this conclusion, we constructed a reverse chimeric channel using Kv1.1 as the template, inserting the corresponding regions from Kv1.3 into Kv1.1. […] This finding more directly illustrates the exchange of the channel's voltage-dependence phenotype in toxin inhibition by swapping this S3-S4 between Kv1.1 and Kv1.3. […] In addition to confirming the differential role of S3-S4 between Kv1.1 and Kv1.3, we also substituted the S3-S4 of Kv1.4 and Kv1.7 into Kv1.3 to analyze MrVIII's inhibition profile. […]
as §1

The test system of the next assay is Kv2.1. The assay is described as follows: Selectivity patch clamp, non-Kv1 channels. It is filed as cell-based. As to conditions: 10 μM MrVIII; n = 3–5. On the procedure:
(§2) CHO-K1 cells were selected for expressing Kv channels due to their lack of endogenous Kv channels, while HEK293 or ND7/23 cells were used for Nav and Cav channel expression. CHO-K1 cells were cultured in a Dulbecco's modified Eagle's medium/Ham's F-12 nutrient mixture (DMEM-F12) medium, and HEK293T and ND7/23 cells in DMEM medium, all supplemented with 10% fetal bovine serum and 1% penicillin-streptomycin (all from Gibco, Thermo Fisher Scientific, Inc) under standard conditions (37 °C, 5% CO2, and saturated humidity). These cell lines were purchased from Stem Cell Bank, Chinese Academy of Sciences. Channel plasmids were cotransfected with pEGFP-N1 (encoding GFP) into the respective cells using lipofectamine 2000, following the manufacturer's instructions (Invitrogen, Thermo Fisher Scientific, Inc.). Nav1.9-GFP plasmid was transfected into ND7/23 using the X-tremeGENE HP DNA Transfection Reagent (Roche). After 4 to 6 h transfection, cells were seeded onto poly-lysine–coated coverslips, and 24 to 36 h later, transfected cells were ready for patch-clamp analysis.
(§3) Patch clamp experiments were conducted using an electrophysiology platform comprising a MultiClamp 700B amplifier and an Axon Digidata 1550 AD/DA convertor (Axon Instruments). Data acquisition was performed with pClamp 10.5 software (Axon Instruments). All experiments were performed at room temperature.
(§4) For Kv current recordings, the bath solution contained (in mM) the following: 140 NaCl, 5 KCl, 1 MgCl2, 2 CaCl2, 10 glucose, and 10 Hepes (pH 7.3, adjusted with NaOH), and the pipette solution contained (in mM) the following: 140 KCl, 2.5 MgCl2, 11 EGTA, and 10 Hepes (pH 7.3, adjusted with KOH). Series resistance was maintained below 10 MΩ and compensated to 80%. Concentration–response curves were fitted by the Hill equation to determine the toxin's potency. Whole cell conductance (G) at each depolarizing voltage (V) was determined using the equation: G = I/(V−Vrev), where I is the current amplitude, and Vrev is the reversal potential. The reversal potential for K^+ current was estimated to be −85.6 mV using the Nernst equation. G-V curves were obtained by plotting the normalized conductance as a function of V and fitted by the Boltzmann equation: y = 1/(1+ exp((Va-V)/k)), which Va is the midpoint voltage, V is the test potential, and k is the slope factor. The steady-state fast inactivation of Kv1.3 was measured using a two-pulses protocol. The cell was held at −120 mV, and a train of conditional voltages (−120–40 mV in 10 mV increments, 60 s) were applied to induce channel inactivation, followed by a +60 mV test pulse (300 ms) to assess the proportion of noninactivated channels. The sweep interval was set to 30 s. Currents at the test pulse (I) were normalized to the maximum value (Imax) and plotted as a function of the conditional voltage (V). The curve was fitted by the Boltzmann equation: I/Imax = A+(1 − A)/(1+exp ((V−Vh)/K)), where Vh is the half-maximum inactivation voltage, A represents the minimum channel availability, and k is the slope factor.

Another assay deals with Kv3.1-3.3. Briefly: Selectivity patch clamp, non-Kv1 channels. The format is cell-based. As to conditions: 10 μM MrVIII; n = 3–5. On the procedure:
as §2, §3, §4

The test system of another assay is Kv4.1-4.3. Briefly: Selectivity patch clamp, non-Kv1 channels. The format is cell-based. The settings on record: 10 μM MrVIII; n = 3–5. On the procedure: as §2, §3, §4
Background: Patch clamp records ionic current or voltage across a cell membrane.

In a further assay the test system is Kv7.1. Briefly: Selectivity patch clamp, non-Kv1 channels. As to conditions: 10 μM MrVIII; n = 3–5. It is filed as cell-based. The method, then: as §2, §3, §4
The next assay relates to Kv7.3. The assay is described as follows: Selectivity patch clamp, non-Kv1 channels. The settings on record: 10 μM MrVIII; n = 3–5. It is filed as cell-based. The method, then:
as §2, §3, §4

SMILES strings stand for the structures. Bridge positions count the residues as written; N and C are the ends. Peptide text beside a SMILES is read from it.

T1 sequence (P22001 whole entry D422E/D423E/P424A/T425E/G427H/T441S/H451Y): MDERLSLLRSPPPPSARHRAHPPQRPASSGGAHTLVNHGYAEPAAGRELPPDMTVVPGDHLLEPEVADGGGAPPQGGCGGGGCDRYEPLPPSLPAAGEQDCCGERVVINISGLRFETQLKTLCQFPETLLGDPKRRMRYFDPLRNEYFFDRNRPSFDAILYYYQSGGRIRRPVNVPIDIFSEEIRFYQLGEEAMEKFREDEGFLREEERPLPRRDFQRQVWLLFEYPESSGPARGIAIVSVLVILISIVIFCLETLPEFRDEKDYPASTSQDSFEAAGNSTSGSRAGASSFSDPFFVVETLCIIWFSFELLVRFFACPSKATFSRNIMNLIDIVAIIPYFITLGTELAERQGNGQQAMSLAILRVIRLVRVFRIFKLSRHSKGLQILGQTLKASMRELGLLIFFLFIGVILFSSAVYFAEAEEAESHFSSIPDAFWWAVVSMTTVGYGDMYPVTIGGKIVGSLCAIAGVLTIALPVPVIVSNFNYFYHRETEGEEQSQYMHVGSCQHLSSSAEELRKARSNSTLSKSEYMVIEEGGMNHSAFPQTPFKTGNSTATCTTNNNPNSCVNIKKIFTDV

Take `CC[C@H](C)[C@@H]1NC(=O)[C@H](Cc2ccc(O)cc2)NC(=O)[C@H](CCC(N)=O)NC(=O)[C@@H]2CCCN2C(=O)[C@@H]2CSSC[C@H](NC(=O)[C@H](C)NC(=O)[C@H](CO)NC(=O)[C@H](CCC(=O)O)NC(=O)[C@H](CCC(=O)O)NC(=O)[C@@H](N)[C@@H](C)O)C(=O)NCC(=O)NCC(=O)N[C@@H](Cc3ccccc3)C(=O)N[C@@H](CC(N)=O)C(=O)N[C@@H](C)C(=O)N[C@@H](CCCNC(=N)N)C(=O)N[C@H]3CSSC[C@H](NC1=O)C(=O)N[C@@H](CCCCN)C(=O)NCC(=O)N[C@@H](Cc1c[nH]c4ccccc14)C(=O)N[C@@H](CCCNC(=N)N)C(=O)N[C@@H]([C@@H](C)O)C(=O)N[C@@H](CCCCN)C(=O)N[C@@H](CCCNC(=N)N)C(=O)N[C@H](C(=O)N[C@@H](CC(C)C)C(=O)N[C@@H](CC(N)=O)C(=O)N1CCC[C@H]1C(=O)O)CSSC[C@H](NC(=O)[C@H](CCCCN)NC(=O)[C@H](Cc1c[nH]cn1)NC(=O)[C@H](CC(C)C)NC(=O)[C@@H]1CCCN1C3=O)C(=O)N2` [MrVIII] (H-TEESACGGFNARCPLHKCCPQYICKGWRTKRCLNP-OH; disulfide 6-19, 13-24, 18-32; N-terminus and C-terminus assumed): the IC50 in assay [1] worked out at 3 ± 0.9 nM; in assay [2] (current at 50 ms), 117 ± 48.2 nM. For the same compound, the “inhi%(495 ms), Kv1.3/Kv1.4 S3-S4 current” value in assay [2] (current at 495 ms) is given as 37.9 ± 5.4%. In addition, the “inhibition of Kv2.1 current” value in the assay on Kv2.1 is recorded as “did not remarkably inhibit”. In the assay with Kv3.1-3.3, the “inhibition of Kv3.1-3.3 currents” value was “did not remarkably inhibit”. In addition, in the assay with Kv4.1-4.3, the “inhibition of Kv4.1-4.3 currents” value is recorded as “did not remarkably inhibit”. Further, the “inhibition of Kv7.1 current” value with Kv7.1 is listed as “did not remarkably inhibit”. Also, the “inhibition of Kv7.3 current” value with Kv7.3 is given as “did not remarkably inhibit”.

The values are drawn from article PMC11984586, “A novel spider toxin as a selective antagonist of the Kv1 subfamily of voltage-gated potassium channels through gating modulation” (The Journal of Biological Chemistry, 2025).
